In PubChem BioAssay (NCI):
Values joined by “and” are separate entries in the source; they are usually repeats but may differ in a detail not shown here. Identical values can stand only once.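 Assay format: 96-well plates, 48-hour exposure. TGI denotes the concentration required for complete inhibition of growth.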

Key:
Assay in all cases: inhibition of tumour cell growth, NCI panel, 48 h
[1] = system: OVCAR-5 ovarian
[2] = system: SK-MEL-2 melanoma
[3] = system: NCI-H226 lung
[4] = system: SN12C renal
[5] = system: OVCAR-4 ovarian
[6] = system: PC-3 prostate
[7] = system: DU-145 prostate
[8] = system: MDA-MB-231 breast
[9] = system: CCRF-CEM leukemia
[10] = system: MDA-MB-435
[11] = system: HCT-116 colon
[12] = system: NCI-H23 lung
[13] = system: M14 melanoma
[14] = system: OVCAR-8 ovarian
[15] = system: HOP-62 NSCLC
[16] = system: HOP-92 NSCLC
[17] = system: UACC-62 melanoma
[18] = system: MALME-3M melanoma
[19] = system: RPMI-8226 leukemia

SMILES	TGI [1]	TGI [2]	TGI [3]	TGI [4]	TGI [5]	TGI [6]	TGI [7]	TGI [8]	TGI [9]	TGI [10]	TGI [11]	TGI [12]	TGI [13]	TGI [14]	TGI [15]	TGI [16]	TGI [17]	TGI [18]	TGI [19]
CC(=O)C1C(=O)C(=O)N(c2ccc([N+](=O)[O-])cc2[N+](=O)[O-])C1=O (stereo not drawn)	> 100 µM	> 100 µM	> 100 µM	> 100 µM	> 100 µM	> 100 µM	> 100 µM	> 100 µM	> 100 µM	> 100 µM	> 100 µM	> 100 µM	> 100 µM	> 100 µM	> 100 µM	> 100 µM	> 100 µM		
COC(=O)/C=C1\CCC2[C@@H](C(=O)CC3[C@]2(C)CCC[C@@]3(C)C(=O)OC)C1C (stereo partly drawn)	> 100 µM	39.4 µM	56.6 µM	70.8 µM	78.8 µM				38.1 µM		48.3 µM		34.2 µM	50.5 µM	69.7 µM	50.6 µM	30 µM	54.1 µM	19.9 µM
Cc1cc(N(CCC#N)CCC#N)ccc1/C=C1N=C(/C=C\c2ccccc2)N(NC(=O)CC(=O)Nc2ccccc2Cl)C\1=O	> 100 µM	> 100 µM	> 100 µM	> 100 µM	> 100 µM				> 100 µM		> 100 µM	> 100 µM	> 100 µM	> 100 µM	> 100 µM	> 100 µM	> 100 µM	> 100 µM	> 100 µM
Cc1ccc(NC(=O)C2C3C=CC(O3)C2C(=O)O)cc1 (stereo not drawn)	> 100 µM	> 100 µM	> 100 µM	> 100 µM	> 100 µM				> 100 µM		> 100 µM	> 100 µM	> 100 µM	> 100 µM	> 100 µM	> 100 µM	> 100 µM	> 100 µM	54.7 µM
CCOC(=O)C(C)NC(=O)NC12CC3CC(CC(F)(C3)C1)C2 (stereo not drawn)	> 100 µM	> 100 µM							> 100 µM		> 100 µM	> 100 µM	> 100 µM	> 100 µM	> 100 µM	56.2 µM	> 100 µM	> 100 µM	> 100 µM
O=C1C(Cl)C(c2ccccc2Cl)N1n1cnc2ccccc2c1=O (stereo not drawn)	> 100 µM	68.4 µM	91.4 µM	> 100 µM	> 100 µM				> 100 µM		> 100 µM	> 100 µM	> 100 µM	> 100 µM	> 100 µM		> 100 µM	> 100 µM	> 100 µM
COc1cc(/C=C2\CCC(C)C3=C2N=c2s/c(=C/c4ccc(Cl)cc4)c(=O)n2C3c2cc(OC)c(OC)c(OC)c2)cc(OC)c1OC (stereo not drawn)	> 100 µM	> 100 µM		> 100 µM	> 100 µM	> 100 µM	> 100 µM	> 100 µM	> 100 µM	> 100 µM	> 100 µM		> 100 µM	> 100 µM	> 100 µM	> 100 µM	> 100 µM		> 100 µM
Cc1cc(Cl)ccc1NC(=O)/C(=N\NC(C)(C)C)C(C#N)c1nc(-c2ccc([N+](=O)[O-])cc2)cs1 (stereo not drawn)	> 100 µM	> 100 µM	> 100 µM	> 100 µM	> 100 µM				> 100 µM		> 100 µM	> 100 µM	> 100 µM	> 100 µM	> 100 µM	> 100 µM	> 100 µM	> 100 µM	> 100 µM
CC(=O)NC1=NC(=O)/C(=C/c2ccccc2Cl)N1C	> 100 µM	> 100 µM	> 100 µM	> 100 µM	> 100 µM	> 100 µM	> 100 µM	> 100 µM	> 100 µM	> 100 µM	> 100 µM	> 100 µM	> 100 µM	> 100 µM	> 100 µM	> 100 µM	> 100 µM		
CC(C)N(C(=O)C12C3C4C5C3C1(C(=O)O)C5C42)C(C)C (stereo not drawn)	> 100 µM	> 100 µM		> 100 µM	> 100 µM				> 100 µM		> 100 µM	> 100 µM	> 100 µM	> 100 µM	> 100 µM	> 100 µM	> 100 µM	> 100 µM	> 100 µM
CCOC(=O)NC(=O)c1cn(CCSCCOC(=O)NCCCCCCNC(=O)OCCSCCn2cc(C(=O)NC(=O)OCC)c(=O)n(C)c2=O)c(=O)n(C)c1=O	> 100 µM	> 100 µM	73.8 µM	> 100 µM					> 100 µM		52.6 µM	> 100 µM		65.9 µM	> 100 µM	> 100 µM	> 100 µM	72.2 µM	66.8 µM
CC(=O)NC(CCCCNCc1ccccc1)C(=O)NCc1ccccc1 (stereo not drawn)	> 100 µM	> 100 µM	> 100 µM	> 100 µM	> 100 µM				> 100 µM		> 100 µM	> 100 µM	> 100 µM	> 100 µM	> 100 µM	> 100 µM	> 100 µM	> 100 µM	> 100 µM
O=C1/C(=C/c2ccccc2Cl)COc2ccc(Br)cc21	> 100 µM	> 100 µM							> 100 µM		> 100 µM	> 100 µM		> 100 µM	> 100 µM	> 100 µM		> 100 µM	
NC(=O)N/N=C(\CC1OC(=O)c2ccccc21)c1ccc([N+](=O)[O-])cc1 (stereo not drawn)		35.4 µM		> 100 µM	> 100 µM				> 100 µM		74.2 µM		> 100 µM		53.6 µM		34.8 µM	73.7 µM	> 100 µM
COc1cc2c(c(OC)c1OC)-c1ccc(SC)c(=O)cc1[C@@H](NC(=O)c1cccc([N+](=O)[O-])c1)CC2	> 100 µM			21.6 µM	> 100 µM				> 100 µM		0.0439 µM and 0.117 µM				14.9 µM		36.4 µM		
O=S1Nc2cccc(C(F)(F)F)c2S1 (stereo not drawn)	> 100 µM	88.6 µM	> 100 µM	> 100 µM	> 100 µM				29.3 µM		> 100 µM	> 100 µM	> 100 µM	> 100 µM	> 100 µM	73.2 µM	> 100 µM	> 100 µM	> 100 µM
